According to patent publication EP2303842B1, “A process for producing lercanidipine.HCl form V” (Recordati Ireland Limited, priority 2008, dated 2010):
Where a name gives a salt, the structure may show the parent alone.

Test: Solubility determination in water, HCl 0.1 M and organic solvents (shaken suspensions, HPLC assay of the supernatant)
Format: physicochemical
Conditions: 25°C, shaken 24h, 1440 min
Description: For this purpose, solubility determination at RT of FI, FII and FV in water, HCl 0.1 M and some organic solvents has been carried out as described in the experimental section.
Suspensions in different solvents, ranging in concentration from 20 mg/mL to 400 mg/mL, depending on the solubility, were shaken with thermomixer at 25°C, […] for 24h. An aliquot was taken, centrifuged for 5 minutes at 13000 rpm, the supernatant was transferred in HPLC vials, opportunely diluted and assayed. For aqueous solvent the supernatant was further filtered with a 0.2 µm PVDF filter and centrifuged for 5 minutes at 8000 rpm.
Solubility data (mg/mL) obtained are gathered in Table 2. Table 2: solubility
HPLC-DAD: HP 1050 separation module controlled by HP Chem-station. Method:
Standard and calibration: automatic three point calibration (0.5 mg/mL, 1.0 mg/mL, 1.5 mg/mL), including the zero, using HP Chem-station program.

[1] = solvent H2O, supernatant filtered 0.2 µm PVDF
[2] = solvent HCl 0.1M, supernatant filtered 0.2 µm PVDF

SMILES | Solubility (solvent ACN) [µg/mL] | Solubility (solvent EtOH) [µg/mL] | Solubility [1] [µg/mL] | Solubility [2] [µg/mL] | Solubility (solvent MeOH) [µg/mL] | Solubility (solvent acetone) [µg/mL]
COC(=O)C1=C(C)NC(C)=C(C(=O)OC(C)(C)CN(C)CCC(c2ccccc2)c2ccccc2)C1c1cccc([N+](=O)[O-])c1 (single isomer, unassigned) [FII, Lercanidipine.HCl Form II] | 4800 | 10500 | 300 | 9 | 83900 | 2700
COC(=O)C1=C(C)NC(C)=C(C(=O)OC(C)(C)CN(C)CCC(c2ccccc2)c2ccccc2)C1c1cccc([N+](=O)[O-])c1 (single isomer, unassigned) [FV, Lercanidipine.HCl Form V] | 26100 | 46720 | 960 | 70 | 221900 | 18500
COC(=O)C1=C(C)NC(C)=C(C(=O)OC(C)(C)CN(C)CCC(c2ccccc2)c2ccccc2)C1c1cccc([N+](=O)[O-])c1 (single isomer, unassigned) [FI, Lercanidipine.HCl Form I] | 13800 | 28200 | 1600 | 200 | 263900 | 9400
